# ChEMBL document CHEMBL4359852, “Design, synthesis and biological evaluation of novel 5-(piperazin-1-yl)quinolin-2(1H)-one derivatives as potential chitin synthase inhibitors and antifungal agents” (Eur J Med Chem, 2019)
# How the values were obtained:
# Escherichia coli = experiment: Antibacterial activity against Escherichia coli JM109 assessed as reduction in bacterial cell growth incubated for overnight by two-fold serial dilution method; format: functional
# Staphylococcus aureus [1] = experiment: Antibacterial activity against Staphylococcus aureus ATCC 25923 assessed as reduction in bacterial cell growth incubated for overnight by two-fold serial dilution method; format: functional
# Bacillus subtilis = experiment: Antibacterial activity against Bacillus subtilis ATCC 6633 assessed as reduction in bacterial cell growth incubated for overnight by two-fold serial dilution method; format: functional
# Pseudomonas aeruginosa = experiment: Antibacterial activity against Pseudomonas aeruginosa ATCC 9027 assessed as reduction in bacterial cell growth incubated for overnight by two-fold serial dilution method; format: functional
# Cryptococcus neoformans = experiment: Antifungal activity against Cryptococcus neoformans ATCC 32719 assessed as reduction in fungal cell growth incubated for 48 hrs by two-fold serial dilution method; format: functional; details: ATCC 32719, 48 h
# Saccharomyces cerevisiae = experiment: Inhibition of Saccharomyces cerevisiae CGMCC 2.145 chitin synthase using GlcNAc and UDP-GlcNAc as substrate at 300 ug/ml incubated for 60 mins by microplate reader analysis relative to control
# Proteus vulgaris = experiment: Antibacterial activity against Bacillus proteus ATCC 8427 assessed as reduction in bacterial cell growth incubated for overnight by two-fold serial dilution method; format: functional
# Aspergillus flavus = experiment: Antifungal activity against Aspergillus flavus ATCC 16870 assessed as reduction in fungal cell growth incubated for 48 hrs by two-fold serial dilution method; format: functional; details: ATCC 16870, 48 h
# Candida albicans = experiment: Antifungal activity against Candida albicans ATCC 76615 assessed as reduction in fungal cell growth incubated for 48 hrs by two-fold serial dilution method; format: functional; details: ATCC 76615, 48 h
# Staphylococcus aureus [2] = experiment: Antibacterial activity against methicillin resistant Staphylococcus aureus N 315 assessed as reduction in bacterial cell growth incubated for overnight by two-fold serial dilution method; format: functional
# [3] = Inhibition of Saccharomyces cerevisiae CGMCC 2.145 chitin synthase using GlcNAc and UDP-GlcNAc as substrate incubated for 60 mins by microplate reader analysis
compound,measurement,setting,value
Cl.O=C1CCc2c(cccc2N2CCN(CC(O)CN3CCOCC3)CC2)N1 (racemic),MIC,Escherichia coli,128 µg/mL
same,MIC,Staphylococcus aureus [1],256 µg/mL
same,MIC,Bacillus subtilis,128 µg/mL
same,MIC,Pseudomonas aeruginosa,128 µg/mL
same,MIC,Cryptococcus neoformans,256 µg/mL
same,inhibition,Saccharomyces cerevisiae,44.7%
same,MIC,Proteus vulgaris,128 µg/mL
same,MIC,Aspergillus flavus,256 µg/mL
same,MIC,Candida albicans,64 µg/mL
same,MIC,Staphylococcus aureus [2],128 µg/mL
Cc1cccc(C)c1NCC(O)CN1CCN(c2cccc3c2CCC(=O)N3)CC1.Cl (racemic),MIC,Escherichia coli,128 µg/mL
same,MIC,Staphylococcus aureus [1],128 µg/mL
same,MIC,Bacillus subtilis,128 µg/mL
same,MIC,Pseudomonas aeruginosa,128 µg/mL
same,MIC,Cryptococcus neoformans,256 µg/mL
same,inhibition,Saccharomyces cerevisiae,40.7%
same,MIC,Proteus vulgaris,128 µg/mL
same,MIC,Aspergillus flavus,256 µg/mL
same,MIC,Candida albicans,128 µg/mL
same,MIC,Staphylococcus aureus [2],256 µg/mL
Cl.O=C1CCc2c(cccc2N2CCN(CC(O)Cn3cnnc3)CC2)N1 (racemic),MIC,Escherichia coli,64 µg/mL
same,MIC,Staphylococcus aureus [1],128 µg/mL
same,MIC,Bacillus subtilis,128 µg/mL
same,MIC,Pseudomonas aeruginosa,128 µg/mL
same,MIC,Cryptococcus neoformans,128 µg/mL
same,inhibition,Saccharomyces cerevisiae,30.8%
same,MIC,Proteus vulgaris,64 µg/mL
same,MIC,Aspergillus flavus,256 µg/mL
same,MIC,Candida albicans,64 µg/mL
same,MIC,Staphylococcus aureus [2],256 µg/mL
Cl.O=C1CCc2c(cccc2N2CCN(CC(O)CNc3cccc4ccccc34)CC2)N1 (racemic),MIC,Escherichia coli,128 µg/mL
same,MIC,Staphylococcus aureus [1],128 µg/mL
same,MIC,Bacillus subtilis,256 µg/mL
same,MIC,Pseudomonas aeruginosa,128 µg/mL
same,MIC,Cryptococcus neoformans,256 µg/mL
same,inhibition,Saccharomyces cerevisiae,47.5%
same,MIC,Proteus vulgaris,128 µg/mL
same,MIC,Aspergillus flavus,512 µg/mL
same,MIC,Candida albicans,128 µg/mL
same,MIC,Staphylococcus aureus [2],128 µg/mL
COc1ccccc1NCC(O)CN1CCN(c2cccc3c2CCC(=O)N3)CC1.Cl (racemic),MIC,Escherichia coli,258 µg/mL
same,MIC,Staphylococcus aureus [1],256 µg/mL
same,MIC,Bacillus subtilis,256 µg/mL
same,MIC,Pseudomonas aeruginosa,128 µg/mL
same,MIC,Cryptococcus neoformans,512 µg/mL
same,inhibition,Saccharomyces cerevisiae,45.4%
same,MIC,Proteus vulgaris,256 µg/mL
same,MIC,Aspergillus flavus,256 µg/mL
same,MIC,Candida albicans,128 µg/mL
same,MIC,Staphylococcus aureus [2],128 µg/mL
CC(C)(C)NCC(O)CN1CCN(c2cccc3c2CCC(=O)N3)CC1.Cl (racemic),MIC,Escherichia coli,256 µg/mL
same,MIC,Staphylococcus aureus [1],256 µg/mL
same,MIC,Bacillus subtilis,512 µg/mL
same,MIC,Pseudomonas aeruginosa,128 µg/mL
same,MIC,Cryptococcus neoformans,256 µg/mL
same,inhibition,Saccharomyces cerevisiae,48.3%
same,MIC,Proteus vulgaris,256 µg/mL
same,MIC,Aspergillus flavus,256 µg/mL
same,MIC,Candida albicans,128 µg/mL
same,MIC,Staphylococcus aureus [2],256 µg/mL
Cl.O=C1CCc2c(cccc2N2CCN(CC(O)CN(CCO)CCO)CC2)N1 (racemic),MIC,Escherichia coli,256 µg/mL
same,MIC,Staphylococcus aureus [1],256 µg/mL
same,MIC,Bacillus subtilis,256 µg/mL
same,MIC,Pseudomonas aeruginosa,256 µg/mL
same,MIC,Cryptococcus neoformans,256 µg/mL
same,inhibition,Saccharomyces cerevisiae,34.5%
same,MIC,Proteus vulgaris,256 µg/mL
same,MIC,Aspergillus flavus,256 µg/mL
same,MIC,Candida albicans,128 µg/mL
same,MIC,Staphylococcus aureus [2],512 µg/mL
Cl.O=C1CCc2c(cccc2N2CCN(CC(O)CN3CCCC3)CC2)N1 (racemic),MIC,Escherichia coli,128 µg/mL
same,MIC,Staphylococcus aureus [1],256 µg/mL
same,MIC,Bacillus subtilis,256 µg/mL
same,MIC,Pseudomonas aeruginosa,512 µg/mL
same,MIC,Cryptococcus neoformans,256 µg/mL
same,inhibition,Saccharomyces cerevisiae,49.9%
same,MIC,Proteus vulgaris,256 µg/mL
same,MIC,Aspergillus flavus,256 µg/mL
same,MIC,Candida albicans,128 µg/mL
same,MIC,Staphylococcus aureus [2],256 µg/mL
Cl.O=C1CCc2c(cccc2N2CCN(C[C@H](O)CNc3ccccc3)CC2)N1,MIC,Escherichia coli,256 µg/mL
same,MIC,Staphylococcus aureus [1],256 µg/mL
same,MIC,Bacillus subtilis,256 µg/mL
same,MIC,Pseudomonas aeruginosa,256 µg/mL
same,IC50,[3],170 µM
same,MIC,Cryptococcus neoformans,256 µg/mL
same,MIC,Proteus vulgaris,128 µg/mL
same,MIC,Aspergillus flavus,128 µg/mL
same,MIC,Candida albicans,64 µg/mL
same,MIC,Staphylococcus aureus [2],128 µg/mL
CN[C@@H]1[C@H](O[C@H]2[C@H](O[C@H]3[C@H](O)[C@@H](O)[C@H](N=C(N)N)[C@@H](O)[C@@H]3N=C(N)N)O[C@@H](C)[C@]2(O)C=O)O[C@@H](CO)[C@H](O)[C@H]1O.CN[C@@H]1[C@H](O[C@H]2[C@H](O[C@H]3[C@H](O)[C@@H](O)[C@H](N=C(N)N)[C@@H](O)[C@@H]3N=C(N)N)O[C@@H](C)[C@]2(O)C=O)O[C@@H](CO)[C@H](O)[C@H]1O.O=S(=O)(O)O.O=S(=O)(O)O.O=S(=O)(O)O [STREPTOMYCIN SULFATE],MIC,Escherichia coli,4 µg/mL
same,MIC,Staphylococcus aureus [1],8 µg/mL
same,MIC,Bacillus subtilis,8 µg/mL
same,MIC,Pseudomonas aeruginosa,16 µg/mL
same,MIC,Proteus vulgaris,16 µg/mL
same,MIC,Staphylococcus aureus [2],32 µg/mL
Cl.O=C1CCc2c(cccc2N2CCN(C[C@H](O)CNc3ccc(Cl)cc3)CC2)N1,MIC,Escherichia coli,128 µg/mL
same,MIC,Staphylococcus aureus [1],128 µg/mL
same,MIC,Bacillus subtilis,128 µg/mL
same,MIC,Pseudomonas aeruginosa,256 µg/mL
same,IC50,[3],380 µM
same,MIC,Cryptococcus neoformans,256 µg/mL
same,MIC,Proteus vulgaris,128 µg/mL
same,MIC,Aspergillus flavus,128 µg/mL
same,MIC,Candida albicans,32 µg/mL
same,MIC,Staphylococcus aureus [2],128 µg/mL
Cl.O=C1CCc2c(cccc2N2CCN(CC(O)CN3CCCCC3)CC2)N1 (racemic),MIC,Escherichia coli,128 µg/mL
same,MIC,Staphylococcus aureus [1],256 µg/mL
same,MIC,Bacillus subtilis,256 µg/mL
same,MIC,Pseudomonas aeruginosa,256 µg/mL
same,MIC,Cryptococcus neoformans,256 µg/mL
same,inhibition,Saccharomyces cerevisiae,32.4%
same,MIC,Proteus vulgaris,256 µg/mL
same,MIC,Aspergillus flavus,256 µg/mL
same,MIC,Candida albicans,64 µg/mL
same,MIC,Staphylococcus aureus [2],512 µg/mL
COc1ccc(NC[C@@H](O)CN2CCN(c3cccc4c3CCC(=O)N4)CC2)cc1.Cl,MIC,Escherichia coli,64 µg/mL
same,MIC,Staphylococcus aureus [1],128 µg/mL
same,MIC,Bacillus subtilis,128 µg/mL
same,MIC,Pseudomonas aeruginosa,256 µg/mL
same,IC50,[3],120 µM
same,MIC,Cryptococcus neoformans,128 µg/mL
same,MIC,Proteus vulgaris,128 µg/mL
same,MIC,Aspergillus flavus,256 µg/mL
same,MIC,Candida albicans,64 µg/mL
same,MIC,Staphylococcus aureus [2],128 µg/mL
Cl.O=C1CCc2c(cccc2N2CCN(CC(O)CN3CCNCC3)CC2)N1 (racemic),MIC,Escherichia coli,256 µg/mL
same,MIC,Staphylococcus aureus [1],256 µg/mL
same,MIC,Bacillus subtilis,128 µg/mL
same,MIC,Pseudomonas aeruginosa,128 µg/mL
same,MIC,Cryptococcus neoformans,256 µg/mL
same,inhibition,Saccharomyces cerevisiae,38.6%
same,MIC,Proteus vulgaris,256 µg/mL
same,MIC,Aspergillus flavus,256 µg/mL
same,MIC,Candida albicans,128 µg/mL
same,MIC,Staphylococcus aureus [2],256 µg/mL
Cl.O=C1CCc2c(cccc2N2CCN(CC(O)CNCc3ccc(Cl)cc3)CC2)N1 (racemic),MIC,Escherichia coli,256 µg/mL
same,MIC,Staphylococcus aureus [1],256 µg/mL
same,MIC,Bacillus subtilis,256 µg/mL
same,MIC,Pseudomonas aeruginosa,256 µg/mL
same,MIC,Cryptococcus neoformans,256 µg/mL
same,inhibition,Saccharomyces cerevisiae,42.5%
same,MIC,Proteus vulgaris,128 µg/mL
same,MIC,Aspergillus flavus,256 µg/mL
same,MIC,Candida albicans,128 µg/mL
same,MIC,Staphylococcus aureus [2],256 µg/mL
CCN(CC)CC(O)CN1CCN(c2cccc3c2CCC(=O)N3)CC1.Cl (racemic),MIC,Escherichia coli,512 µg/mL
same,MIC,Staphylococcus aureus [1],256 µg/mL
same,MIC,Bacillus subtilis,512 µg/mL
same,MIC,Pseudomonas aeruginosa,128 µg/mL
same,MIC,Cryptococcus neoformans,256 µg/mL
same,inhibition,Saccharomyces cerevisiae,39.4%
same,MIC,Proteus vulgaris,512 µg/mL
same,MIC,Aspergillus flavus,512 µg/mL
same,MIC,Candida albicans,128 µg/mL
same,MIC,Staphylococcus aureus [2],256 µg/mL
CCn1cc(C(=O)O)c(=O)c2cc(F)c(N3CCNCC3)cc21 [NORFLOXACIN],MIC,Escherichia coli,1 µg/mL
same,MIC,Staphylococcus aureus [1],2 µg/mL
same,MIC,Bacillus subtilis,1 µg/mL
same,MIC,Pseudomonas aeruginosa,0.5 µg/mL
same,MIC,Proteus vulgaris,2 µg/mL
same,MIC,Staphylococcus aureus [2],2 µg/mL
Cl.O=C1CCc2c(cccc2N2CCN(CC(O)CN3CCCCCC3)CC2)N1 (racemic),MIC,Escherichia coli,256 µg/mL
same,MIC,Staphylococcus aureus [1],256 µg/mL
same,MIC,Bacillus subtilis,256 µg/mL
same,MIC,Pseudomonas aeruginosa,256 µg/mL
same,MIC,Cryptococcus neoformans,256 µg/mL
same,inhibition,Saccharomyces cerevisiae,45.4%
same,MIC,Proteus vulgaris,256 µg/mL
same,MIC,Aspergillus flavus,256 µg/mL
same,MIC,Candida albicans,128 µg/mL
same,MIC,Staphylococcus aureus [2],512 µg/mL
Cc1ccccc1NCC(O)CN1CCN(c2cccc3c2CCC(=O)N3)CC1.Cl (racemic),MIC,Escherichia coli,256 µg/mL
same,MIC,Staphylococcus aureus [1],128 µg/mL
same,MIC,Bacillus subtilis,128 µg/mL
same,MIC,Pseudomonas aeruginosa,128 µg/mL
same,MIC,Cryptococcus neoformans,256 µg/mL
same,inhibition,Saccharomyces cerevisiae,28.4%
same,MIC,Proteus vulgaris,128 µg/mL
same,MIC,Aspergillus flavus,256 µg/mL
same,MIC,Candida albicans,128 µg/mL
same,MIC,Staphylococcus aureus [2],128 µg/mL
Cl.O=C1CCc2c(cccc2N2CCN(CC(O)CNCc3ccccc3)CC2)N1 (racemic),MIC,Escherichia coli,256 µg/mL
same,MIC,Staphylococcus aureus [1],256 µg/mL
same,MIC,Bacillus subtilis,256 µg/mL
same,MIC,Pseudomonas aeruginosa,256 µg/mL
same,MIC,Cryptococcus neoformans,> 512 µg/mL
same,inhibition,Saccharomyces cerevisiae,18.1%
same,MIC,Proteus vulgaris,256 µg/mL
same,MIC,Aspergillus flavus,> 512 µg/mL
same,MIC,Candida albicans,128 µg/mL
same,MIC,Staphylococcus aureus [2],128 µg/mL
Cc1ccc(NCC(O)CN2CCN(c3cccc4c3CCC(=O)N4)CC2)cc1.Cl (racemic),MIC,Escherichia coli,128 µg/mL
same,MIC,Staphylococcus aureus [1],64 µg/mL
same,MIC,Bacillus subtilis,128 µg/mL
same,MIC,Pseudomonas aeruginosa,128 µg/mL
same,MIC,Cryptococcus neoformans,> 512 µg/mL
same,inhibition,Saccharomyces cerevisiae,17.6%
same,MIC,Proteus vulgaris,64 µg/mL
same,MIC,Aspergillus flavus,128 µg/mL
same,MIC,Candida albicans,128 µg/mL
same,MIC,Staphylococcus aureus [2],64 µg/mL
OC(Cn1cncn1)(Cn1cncn1)c1ccc(F)cc1F [FLUCONAZOLE],MIC,Cryptococcus neoformans,4 µg/mL
same,MIC,Aspergillus flavus,64 µg/mL
same,MIC,Candida albicans,16 µg/mL
